Results: the NIST ThermoML archive (doi:10.1016/j.jct.2014.01.023)

Conditions: Crystal; for vapor or sublimation pressure: Transpiration method

CN1C(=O)N(C)C(=O)C(C)(C)C1=O [1,3,5,5-tetramethylpyrimidine-2,4,6(1H,3H,5H)-trione]
Conditions | vapor or sublimation pressure [kPa]
323.2 K | 0.00344
326.2 K | 0.00457
328.2 K | 0.00555
332.1 K | 0.00801
334.2 K | 0.0099
336.2 K | 0.01132
338.2 K | 0.01415
340.1 K | 0.01647
342.9 K | 0.02036
346 K | 0.02803
347.4 K | 0.03182
349.2 K | 0.03555
350.1 K | 0.04039
351 K | 0.04459
351.1 K | 0.04429
352.9 K | 0.05014
355.2 K | 0.05715
356.2 K | 0.06561
360.2 K | 0.08943
365 K | 0.135
367.6 K | 0.168

CC1C(=O)N(C)C(=O)N(C)C1=O [1,3,5-trimethylbarbituric acid]
Conditions | Normal melting temperature [°C] | vapor or sublimation pressure [kPa]
322.5 K | – | 0.00289
328.4 K | – | 0.00528
332.6 K | – | 0.00792
338.6 K | – | 0.01482
343 K | – | 0.02296
349.4 K | – | 0.04451
354.5 K | – | 0.06767
358.6 K | – | 0.09676
DTA | 90.50 | –

CN1C(=O)NC(=O)C(C)(C)C1=O [1,5,5-trimethylbarbituric acid]
Conditions | vapor or sublimation pressure [kPa]
360 K | 0.00265
366.1 K | 0.00471
366.2 K | 0.00487
374.2 K | 0.00972
379.6 K | 0.01551
380.8 K | 0.01685
382.7 K | 0.02034
386.8 K | 0.02976
387.5 K | 0.02935
388.7 K | 0.03375
389.7 K | 0.03771
392.6 K | 0.04726
393.7 K | 0.05266
396.7 K | 0.06438
402.5 K | 0.09884
406.7 K | 0.1462
410.2 K | 0.187
411.7 K | 0.196
414.2 K | 0.2461
419.9 K | 0.3607
427.9 K | 0.6087
